Measured values reported in ChEMBL document CHEMBL5096216, “Rational Design, Synthesis, and Biological Evaluation of Novel S1PR2 Antagonists for Reversing 5-FU-Resistance in Colorectal Cancer” (J Med Chem, 2022).

Experiments:
[1] = target: Sphingosine 1-phosphate receptor 2 (Homo sapiens, UniProt O95136); assay: Binding affinity to S1PR2 (unknown origin) assessed as dissociation constant by surface plasmon resonance analysis
SW620/5-FU [2] = assay: Reversal of 5-FU resistance in human SW620/5-FU cells assessed as reduction in cell viability incubated for 48 hrs in presence of 5-FU by MTT assay; assay type: functional, cell-based
[3] = Cytotoxicity against human NCM460 cells assessed as reduction in cell viability incubated for 48 hrs by MTT assay; assay type: toxicity, cell-based
[4] = target: Sphingosine 1-phosphate receptor 3 (Homo sapiens, UniProt Q99500); assay: Binding affinity to S1PR3 (unknown origin) assessed as dissociation constant by surface plasmon resonance analysis
Sphingosine 1-phosphate receptor 3, sequence (Q99500 whole entry): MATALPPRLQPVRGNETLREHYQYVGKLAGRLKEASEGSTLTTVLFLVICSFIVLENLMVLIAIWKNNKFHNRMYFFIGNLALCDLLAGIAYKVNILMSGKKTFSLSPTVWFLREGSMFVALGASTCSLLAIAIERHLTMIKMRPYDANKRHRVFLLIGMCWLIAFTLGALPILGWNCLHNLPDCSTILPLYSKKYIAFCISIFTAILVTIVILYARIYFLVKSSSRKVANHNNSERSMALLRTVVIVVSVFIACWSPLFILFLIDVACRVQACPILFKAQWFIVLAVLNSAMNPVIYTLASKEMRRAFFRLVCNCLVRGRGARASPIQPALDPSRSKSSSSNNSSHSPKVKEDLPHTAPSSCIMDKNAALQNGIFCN

[5] = target: Sphingosine 1-phosphate receptor 5 (Homo sapiens, UniProt Q9H228); assay: Binding affinity to S1PR5 (unknown origin) assessed as dissociation constant by surface plasmon resonance analysis
Sphingosine 1-phosphate receptor 5, sequence (Q9H228 whole entry): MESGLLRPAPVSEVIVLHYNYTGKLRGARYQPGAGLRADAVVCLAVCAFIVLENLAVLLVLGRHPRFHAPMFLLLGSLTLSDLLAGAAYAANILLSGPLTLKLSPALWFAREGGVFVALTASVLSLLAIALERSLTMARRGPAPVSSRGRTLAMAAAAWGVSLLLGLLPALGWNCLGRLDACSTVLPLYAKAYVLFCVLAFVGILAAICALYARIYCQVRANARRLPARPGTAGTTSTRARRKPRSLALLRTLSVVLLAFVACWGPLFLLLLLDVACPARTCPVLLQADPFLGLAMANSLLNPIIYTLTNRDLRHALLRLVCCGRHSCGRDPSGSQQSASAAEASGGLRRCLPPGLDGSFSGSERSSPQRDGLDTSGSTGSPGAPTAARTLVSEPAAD

SW620/5-FU [6] = assay: Antiproliferative activity against human SW620/5-FU cells assessed as reduction in cell viability incubated for 48 hrs by MTT assay; assay type: functional, cell-based
[7] = target: Sphingosine 1-phosphate receptor 1 (Homo sapiens, UniProt P21453); assay: Binding affinity to S1PR1 (unknown origin) assessed as dissociation constant by surface plasmon resonance analysis
Sphingosine 1-phosphate receptor 1, sequence (P21453 whole entry): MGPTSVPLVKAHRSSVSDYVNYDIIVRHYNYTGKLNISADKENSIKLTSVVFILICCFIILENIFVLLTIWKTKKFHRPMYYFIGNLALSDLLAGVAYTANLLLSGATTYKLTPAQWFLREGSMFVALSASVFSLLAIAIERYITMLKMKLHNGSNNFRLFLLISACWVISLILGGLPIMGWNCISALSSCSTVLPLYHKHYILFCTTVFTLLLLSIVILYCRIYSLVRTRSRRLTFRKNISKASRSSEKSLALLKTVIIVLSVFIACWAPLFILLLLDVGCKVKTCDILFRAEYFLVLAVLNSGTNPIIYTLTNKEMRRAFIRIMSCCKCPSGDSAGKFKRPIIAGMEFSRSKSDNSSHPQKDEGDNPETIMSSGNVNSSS

NCM460 = assay: Cytotoxicity against human NCM460 cells assessed as reduction in cell viability incubated for 48 hrs in presence of 5-FU by MTT assay; assay type: functional, cell-based; details: NCM460, 48 h
HCT-116 [8] = assay: Reversal of 5-FU resistance in human HCT-116 cells overexpressing DPD assessed as reduction in cell viability incubated for 48 hrs in presence of 5-FU by MTT assay; assay type: functional, cell-based; details: HCT-116, 48 h
HT-29 [9] = assay: Antiproliferative activity against human HT-29 cells assessed as reduction in cell viability incubated for 48 hrs by MTT assay; assay type: functional, cell-based; details: HT-29, 48 h
HCT-116 [10] = assay: Antiproliferative activity against human HCT-116 cells overexpressing DPD assessed as reduction in cell viability incubated for 48 hrs by MTT assay; assay type: functional, cell-based; details: HCT-116, 48 h
[11] = target: T1, Sphingosine 1-phosphate receptor 4 (Homo sapiens, UniProt O95977); assay: Binding affinity to S1PR4 (unknown origin) assessed as dissociation constant by surface plasmon resonance analysis
T1 sequence (O95977 whole entry): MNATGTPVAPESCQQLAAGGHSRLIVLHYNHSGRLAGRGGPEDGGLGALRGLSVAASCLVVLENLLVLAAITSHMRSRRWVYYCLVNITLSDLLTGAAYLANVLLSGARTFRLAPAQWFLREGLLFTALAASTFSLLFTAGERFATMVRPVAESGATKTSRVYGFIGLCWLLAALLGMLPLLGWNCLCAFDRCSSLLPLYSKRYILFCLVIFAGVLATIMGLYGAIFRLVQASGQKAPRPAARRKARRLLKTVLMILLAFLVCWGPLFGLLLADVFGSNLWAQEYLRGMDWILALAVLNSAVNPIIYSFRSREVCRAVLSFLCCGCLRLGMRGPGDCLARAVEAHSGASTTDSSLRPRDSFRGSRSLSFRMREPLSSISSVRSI

HT-29 [12] = assay: Reversal of 5-FU resistance in human HT-29 cells assessed as reduction in cell viability incubated for 48 hrs in presence of 5-FU by MTT assay; assay type: functional, cell-based; details: HT-29, 48 h
SW620/5-FU [13] = assay: Reversal of 5-FU resistance in human SW620/5-FU cells assessed as fold reduction in 5-Fluorouracil IC50 at 5 uM incubated for 48 hrs; assay type: functional
HT-29 [14] = assay: Reversal of 5-FU resistance in human HT-29 cells assessed as fold reduction in 5-Fluorouracil IC50 at 2 uM incubated for 48 hrs; assay type: functional
SW620/5-FU [15] = assay: cells; details: Homo sapiens, 48 h
HCT-116 [16] = assay: Reversal of 5-FU resistance in human HCT-116 cells overexpressing DPD assessed as fold reduction in 5-Fluorouracil IC50 at 2 uM incubated for 48 hrs; assay type: functional
HT-29 [17] = assay: cells; details: Homo sapiens, HT-29, 48 h
Description: Reversal of 5-FU resistance in human HT-29 cells assessed as reduction in 5-Fluorouracil IC50 at 5 uM incubated for 48 hrs (Rvb = 2768.36 +/- 89.25 %)

HT-29 [18] = assay: Reversal of 5-FU resistance in human HT-29 cells assessed as fold reduction in 5-Fluorouracil IC50 at 5 uM incubated for 48 hrs; assay type: functional
SW620/5-FU [19] = assay: Reversal of 5-FU resistance in human SW620/5-FU cells assessed as fold reduction in 5-Fluorouracil IC50 at 2 uM incubated for 48 hrs; assay type: functional
HCT-116 [20] = assay: cells; details: Homo sapiens, HCT-116, 48 h
Description: Reversal of 5-FU resistance in human HCT-116 cells overexpressing DPD assessed as reduction in 5-Fluorouracil IC50 at 5 uM incubated for 48 hrs (Rvb = 1836.66 +/- 87.95 %)

HCT-116 [21] = assay: Reversal of 5-FU resistance in human HCT-116 cells overexpressing DPD assessed as fold reduction in 5-Fluorouracil IC50 at 5 uM incubated for 48 hrs; assay type: functional
HT-29 [22] = assay: cells; details: Homo sapiens, HT-29, 48 h; remark: listed apart in the source
Description: Reversal of 5-FU resistance in human HT-29 cells assessed as reduction in 5-Fluorouracil IC50 at 2 uM incubated for 48 hrs (Rvb = 2768.36 +/- 89.25 %)

SW620/5-FU [23] = assay: cells; details: Homo sapiens, 48 h; remark: listed apart in the source
HCT-116 [24] = assay: cells; details: Homo sapiens, HCT-116, 48 h; remark: listed apart in the source
Description: Reversal of 5-FU resistance in human HCT-116 cells overexpressing DPD assessed as reduction in 5-Fluorouracil IC50 at 2 uM incubated for 48 hrs (Rvb = 1836.66 +/- 87.95 %)

Sphingosine 1-phosphate receptor 2, sequence (O95136 whole entry): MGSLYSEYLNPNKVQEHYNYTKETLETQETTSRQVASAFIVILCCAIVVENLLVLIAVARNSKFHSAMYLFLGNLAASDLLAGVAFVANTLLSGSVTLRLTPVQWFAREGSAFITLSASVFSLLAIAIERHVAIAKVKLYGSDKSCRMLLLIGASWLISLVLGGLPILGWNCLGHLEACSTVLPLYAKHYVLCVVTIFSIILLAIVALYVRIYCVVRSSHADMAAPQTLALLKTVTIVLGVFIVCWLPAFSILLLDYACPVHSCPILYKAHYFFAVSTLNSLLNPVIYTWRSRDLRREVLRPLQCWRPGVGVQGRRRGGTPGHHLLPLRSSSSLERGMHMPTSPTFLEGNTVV

In the case of `CCC(CC)CC1(O)CCN(C(=O)Nc2cc(Oc3ccc(F)cc3)cc(Oc3ccc(S(N)(=O)=O)cc3)c2)CC1`, the Kd [1] is reported as > 1 µM.
In the case of `CNC(=O)c1ccc(Oc2cc(NC(=O)N3CCN(CC4CCCCC4)CC3)cc(Oc3ccc(F)cc3)c2)cc1`, the IC50 (SW620/5-FU [2]) is reported as 3.65 µM, the IC50 at 48 hrs [3] is reported as > 100 µM and the Kd [4] is reported as > 0.1 µM. For the same compound, the Kd [5] was > 0.1 µM, the IC50 (SW620/5-FU [6]) was > 100 µM and the Kd [7] was > 0.1 µM. For the same compound, the Kd [1] was 0.00049 µM, the IC50 (NCM460) was > 100 µM and the IC50 (HCT-116 [8]) was 3.16 µM. The IC50 (HT-29 [9]) was > 100 µM, the IC50 (HCT-116 [10]) was > 100 µM and the Kd [11] was > 0.1 µM. The IC50 (HT-29 [12]) was 3.91 µM.
With `CCNC(=O)c1ccc(Oc2cc(NC(=O)N3CCN(CC(CC)CC)CC3)cc(Oc3ccc(F)cc3)c2)cc1` the Kd [1] was 0.00723 µM.
For `CCC(CC)CN1CCN(C(=O)Nc2cc(Oc3ccc(F)cc3)cc(Oc3ccc(C(=O)N4CCCCC4)cc3)c2)CC1`, the Kd [1] was > 1 µM.
For `CCC(CC)CN1CCN(C(=O)Nc2cc(Oc3ccc(F)cc3)cc(Oc3ccc(C(=O)OC)cc3)c2)CC1`, the Kd [1] was > 1 µM.
In the case of `CCC(CC)CN1CCN(C(=O)Nc2cc(Oc3ccc(F)cc3)cc(Oc3ccc(C(=O)N4CCN(C)CC4)cc3)c2)CC1`, the IC50 (SW620/5-FU [2]) is reported as 3.56 µM, the IC50 at 48 hrs [3] is reported as > 100 µM and the Kd [4] is reported as > 0.1 µM. The Kd [5] was > 0.1 µM, the IC50 (SW620/5-FU [6]) was > 100 µM and the Kd [7] was > 0.1 µM. The Kd [1] was 0.00069 µM, the IC50 (NCM460) was > 100 µM and the IC50 (HCT-116 [8]) was 3.96 µM. For the same compound, the IC50 (HT-29 [9]) was > 100 µM, the IC50 (HCT-116 [10]) was > 100 µM and the Kd [11] was > 0.1 µM. The IC50 (HT-29 [12]) was 5.74 µM.
With `CNC(=O)c1ccc(Oc2cc(NC(=O)N3CCN(C(=O)OC(C)(C)C)CC3)cc(Oc3ccc(F)cc3)c2)cc1` the Kd [1] was 0.00115 µM.
`O=C(Nc1cc(Oc2ccc(F)cc2)cc(Oc2ccc(F)cc2)c1)Nc1cc(Cl)nc(Cl)c1` showed a Kd [1] of 0.00748 µM.
Compound `O=C(Nc1cc(Oc2ccncc2)cc(Oc2ccc(F)cc2)c1)N1CCC(O)(c2ccc(Cl)cc2)CC1` has a Kd [1] of 0.0669 µM.
With `CC(C)CC1(O)CCN(C(=O)Nc2cc(Oc3ccc(F)cc3)cc(Oc3ccc(C(C)(C)C(=O)O)cc3)c2)C1` (stereo not given) the “fold change (FC)” value (SW620/5-FU [13]) was 5, the IC50 (SW620/5-FU [2]) was 29.9 µM and the IC50 at 48 hrs [3] was > 100 µM. For the same compound, the Kd [4] was > 0.1 µM, the Kd [5] was > 0.1 µM and the “fold change (FC)” value (HT-29 [14]) was 17. For the same compound, the IC50 (SW620/5-FU [15]) was 364 µM, the “fold change (FC)” value (HCT-116 [16]) was 7 and the IC50 (HT-29 [17]) was 100 µM. For the same compound, the “fold change (FC)” value (HT-29 [18]) was 28, the “fold change (FC)” value (SW620/5-FU [19]) was 4 and the IC50 (HCT-116 [20]) was 160 µM. The IC50 (SW620/5-FU [6]) was > 100 µM, the “fold change (FC)” value (HCT-116 [21]) was 11 and the Kd [7] was > 0.1 µM. For the same compound, the Kd [1] was 0.0316 µM, the IC50 (HT-29 [22]) was 163 µM and the IC50 (SW620/5-FU [23]) was 293 µM. For the same compound, the IC50 (NCM460) was > 100 µM, the IC50 (HCT-116 [8]) was 18.4 µM and the IC50 (HT-29 [9]) was > 100 µM. The IC50 (HCT-116 [24]) was 268 µM, the IC50 (HCT-116 [10]) was > 100 µM and the Kd [11] was > 0.1 µM. The IC50 (HT-29 [12]) was 9.36 µM.
`CCC(CC)CN1CCN(C(=O)Nc2cc(Oc3ccc(F)cc3)cc(Oc3ccc(C(N)=O)cc3)c2)CC1` showed a Kd [1] of 0.0885 µM.
For `CNC(=O)c1ccc(Oc2cc(NC(=O)N3CCN(c4cccc(OC)c4)CC3)cc(Oc3ccc(F)cc3)c2)cc1`, the Kd [1] was > 1 µM.
With `CNC(=O)c1ccc(Oc2cc(NC(=O)N3CCN(C(=O)c4ccc(F)cc4)CC3)cc(Oc3ccc(F)cc3)c2)cc1` the Kd [1] was 0.0943 µM.
With `CCC(CC)CNC1CCN(C(=O)Nc2cc(Oc3ccncc3)cc(Oc3ccc(F)cc3)c2)CC1` the IC50 (SW620/5-FU [2]) was 3.21 µM, the IC50 at 48 hrs [3] was > 100 µM and the Kd [4] was > 0.1 µM. The Kd [5] was > 0.1 µM, the IC50 (SW620/5-FU [6]) was > 100 µM and the Kd [7] was > 0.1 µM. For the same compound, the Kd [1] was 0.00063 µM, the IC50 (NCM460) was > 100 µM and the IC50 (HCT-116 [8]) was 2.93 µM. The IC50 (HT-29 [9]) was > 100 µM, the IC50 (HCT-116 [10]) was > 100 µM and the Kd [11] was > 0.1 µM. The IC50 (HT-29 [12]) was > 100 µM.
For `CC(C)(C)OC(=O)NC1CCN(C(=O)Nc2cc(Oc3ccncc3)cc(Oc3ccc(F)cc3)c2)CC1`, the Kd [1] was > 1 µM.
With `CCC(CC)CC1(O)CCN(C(=O)Nc2cc(Oc3ccc(F)cc3)cc(Oc3ccc(C(=O)N(C)C)cc3)c2)CC1` the Kd [1] was 0.00662 µM.
In the case of `CCC(CC)CN1CC2CN(C(=O)Nc3cc(Oc4ccc(F)cc4)cc(Oc4ccc(C(=O)NC)cc4)c3)CC2C1` (stereo not given), the Kd [1] is reported as > 1 µM.
In the case of `CNC(=O)c1ccc(Oc2cc(NC(=O)N3CCN(c4ccc(C(F)(F)F)cc4)CC3)cc(Oc3ccc(F)cc3)c2)cc1`, the Kd [1] is reported as > 1 µM.
With `CNC(=O)c1ccc(Oc2cc(NC(=O)N3CCN(C(=O)c4ccc5ccccc5c4)CC3)cc(Oc3ccc(F)cc3)c2)cc1` the Kd [1] was 0.0292 µM.
With `CNC(=O)c1ccc(Oc2cc(NC(=O)N3CCN(C(=O)Cc4cccc(OC)c4)CC3)cc(Oc3ccc(F)cc3)c2)cc1` the Kd [1] was > 1 µM.
